# In patent US7608718B2, “4,5-dihydro-1H-pyrazole derivatives having potent CB1-antagonistic activity” (Solvay Pharmaceuticals B.V., priority 2001, dated 2009):
row,melting point [°C],SMILES
1,245,"CSC(=NS(=O)(=O)N1CCC(N2CCCCC2)CC1)N1CC(c2ccccc2)C(c2ccc(Cl)cc2)=N1 (stereo not drawn) [Example 97, 3-(4-Chlorophenyl)-N-(([1,4′]bipiperidin-1′-yl)sulfonyl)-4-phenyl-4,5-dihydro-1H-pyrazole-1-carboximidothioic acid methyl ester]"
2,159 to 160,"CCN(CC)S(=O)(=O)N=C(N(C)C)N1CC(c2ccccc2)C(c2ccc(F)cc2)=N1 (stereo not drawn) [Example 64, N′-((Diethylamino)sulfonyl)-N,N-dimethyl-3-(4-fluorophenyl)-4-phenyl-4,5-dihydro-1H-pyrazole-1-carboxamidine]"
3,122 to 123,"CCN(CC)S(=O)(=O)N=C(NC)N1CC(c2ccccc2)C(c2ccc(Cl)s2)=N1 (stereo not drawn) [Example 58, 3-(5-Chlorothien-2-yl)-N′-((diethylamino)sulfonyl)-N-methyl-4-phenyl-4,5-dihydro-1H-pyrazole-1-carboxamidine]"
4,205 to 207,"CSC(=NS(=O)(=O)N1CCOCC1)N1CC(c2ccccc2F)C(c2ccc(Cl)cc2)=N1 (stereo not drawn) [Example 47, 3-(4-Chlorophenyl)-4-(2-fluorophenyl)-N-((morpholin-4-yl)sulfonyl)-4,5-dihydro-1H-pyrazole-1-carboximidothioic acid methyl ester]"
5,192 to 194,CSC(=NS(=O)(=O)N1CCCCC1)N1CC(c2ccccc2)C(c2ccc(Cl)cc2)=N1 (stereo not drawn)
6,165 to 168,"CNC(=NS(=O)(=O)N1CCOCC1)N1CC(c2ccccc2F)C(c2ccc(Cl)cc2)=N1 (stereo not drawn) [Example 86, 3-(4-Chlorophenyl)-4-(2-fluorophenyl)-N-methyl-N′-((morpholin-4-yl)sulfonyl)-4,5-dihydro-1H-pyrazole-1-carboxamidine]"
7,104 to 106,"CCN(CC)S(=O)(=O)N=C(NCCO)N1CC(c2ccccc2)C(c2ccc(Cl)cc2)=N1 (stereo not drawn) [Example 3, 3-(4-Chlorophenyl)-N′-((diethylamino)sulfonyl)-N-(2-hydroxyethyl)-4-phenyl-4,5-dihydro-1H-pyrazole-1-carboxamidine]"
8,125 to 128,CCN(C)S(=O)(=O)N=C(NC)N1CC(c2cccnc2)C(c2ccc(Cl)cc2)=N1 (stereo not drawn)
9,157 to 159,"CNC(=NS(=O)(=O)N(C)C)N1CC(c2cccnc2)C(c2ccc(Cl)cc2)=N1 (stereo not drawn) [Example 72, 3-(4-Chlorophenyl)-N′-((dimethylamino)sulfonyl)-N-methyl-4-(pyridin-3-yl)-4,5-dihydro-1H-pyrazole-1-carboxamidine]"
10,221 to 225,"CSC(=NS(=O)(=O)N1CCCCC1)N1CC(c2c(F)cccc2F)C(c2ccc(Cl)cc2)=N1 (stereo not drawn) [Example 51, 3-(4-Chlorophenyl)-4-(2,6-difluorophenyl)-N-((piperidin-1-yl)sulfonyl)-4,5-dihydro-1H-pyrazole-1-carboximidothioic acid methyl ester]"
11,127 to 129,"CCCNC(=NS(=O)(=O)N(C)C)N1CC(c2ccccc2)C(c2ccc(Cl)cc2)=N1 (stereo not drawn) [Example 31, 3-(4-Chlorophenyl)-N′-((dimethylamino)sulfonyl)-N-propyl-4-phenyl-4,5-dihydro-1H-pyrazole-1-carboxamidine]"
12,182 to 185,"CSC(=NS(=O)(=O)N1CCCCC1)N1CC(c2cccnc2)C(c2ccc(Cl)cc2)=N1 (stereo not drawn) [Example 45, 3-(4-Chlorophenyl)-N-((piperidin-1-yl)sulfonyl)-4-(pyridin-3-yl)-4,5-dihydro-1H-pyrazole-1-carboximidothioic acid methyl ester]"
13,202 to 204,CSC(=NS(=O)(=O)N1CCOCC1)N1CC(c2ccccc2)C(c2ccc(Cl)cc2)=N1 (stereo not drawn)
14,132 to 134,CCCN(C)S(=O)(=O)N=C(NC)N1CC(c2ccccc2)C(c2ccc(Cl)cc2)=N1 (stereo not drawn)
15,162 to 165,"CCNC(=NS(=O)(=O)N(CC)CC)N1CC(O)(c2ccccc2)C(c2ccc(Cl)cc2)=N1 (stereo not drawn) [Example 68, 3-(4-Chlorophenyl)-N′-((diethylamino)sulfonyl)-N-ethyl-4-hydroxy-4-phenyl-4,5-dihydro-1H-pyrazole-1-carboxamidine]"
